Data set [1] in a line: Aqueous solubility (Shaked Flask Method). The data set is classed as physicochemical. The conditions noted are these: aqueous buffer, thermodynamic from solid, pH 6.8 (McIlvaine buffer). As to the method:
Assay for Determination of Aqueous Solubility (“Shaked Flask Method”)
Saturated solutions are prepared in well plates by adding an appropriate volume of selected aqueous media (typically in the range of 0.25-1.5 ml) into each well which contains a known quantity of solid drug substance (typically in the range 0.5-5.0 mg). The wells are shaken or stirred for a predefined time period (typically in a range of 2-24 h) and then filtered using appropriate filter membranes (typically PTFE-filters with 0.45 μm pore size). Filter absorption is avoided by discarding the first few drops of filtrate. The amount of dissolved drug substance is determined by UV spectroscopy or by HPLC with UV-detection. In addition, the pH of the aqueous saturated solution is measured using a glass-electrode pH meter.

In data set [2] the target is Human neutrophil elastase (Homo sapiens (Human), UniProt P08246). Description: Human Neutrophil Elastase Assay. The data set is classed as biochemical. The conditions noted are these: substrate MeOSuc-Ala-Ala-Pro-Val-AMC 250 μM, pH 7.5, room temperature.
Human neutrophil elastase, sequence (P08246 30-247): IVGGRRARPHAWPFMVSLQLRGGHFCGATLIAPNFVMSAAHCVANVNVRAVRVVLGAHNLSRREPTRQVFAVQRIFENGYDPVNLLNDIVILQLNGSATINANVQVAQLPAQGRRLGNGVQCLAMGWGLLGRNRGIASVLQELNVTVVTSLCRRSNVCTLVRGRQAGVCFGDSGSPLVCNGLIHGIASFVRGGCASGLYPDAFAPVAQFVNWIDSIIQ
Method: The following buffers were used: Compound buffer: 100 mM Tris, 500 mM NaCl, adjusted to pH 7.5; Assay buffer: 100 mM Tris, 500 mM NaCl, adjusted to pH 7.5, containing 0.01% BSA.
Assay conditions: Test compounds were prediluted in DMSO and subsequently in compound buffer (5% DMSO final). […] After inactivation of the enzyme, fluorescence intensities were measured at 380 nm excitation and 460 nm emission wavelengths.
Each plate contains wells with a high value control (DMSO+enzyme+substrate) and wells with a low value control (DMSO+inactivated enzyme+substrate). IC50 values were estimated using a sigmoidal concentration response curve with variable slope. Means of low values were taken as 0%, means of high values as 100%.
Data set [3] in a line: Metabolic stability with human hepatocytes. The data set is classed as in vitro ADME. The conditions noted are these: human hepatocyte suspension (typically cryopreserved), 1 μM test compound, six hours, scaled with well stirred model. As to the method:
Assay for the Determination of Metabolic Stability with Human Hepatocytes
The metabolic degradation of the test compound is assayed in a human hepatocyte suspension. Human hepatocytes (typically cryopreserved) are incubated in an appropriate buffer system (e.g. Dulbecco's modified eagle medium plus 3.5 μg glucagon/500 mL, 2.5 mg insulin/500 mL and 3.75 mg/500 mL hydrocortison) containing 5% species serum. Following a (typically) 30 min preincubation in an incubator (37° C., 10% CO2), 5 μl of test compound solution (80 μM; from 2 mM stock solution in DMSO diluted 1:25 with medium) are added into 395 μl hepatocyte suspension (cell density in the range 0.25-5*10^6 cells/mL, typically 1*10^6 cells/mL; final concentration of test compound 1 μM, final DMSO concentration 0.05%). The cells are incubated for six hours (incubator, orbital shaker) and samples (25 μl) are taken at 0, 0.5, 1, 2, 4 and 6 hours. Samples are transferred into acetonitrile and pelleted by centrifugation (5 min) The supernatant is transferred to a new 96-deepwell plate, evaporated under nitrogen and resuspended. The decline of parent compound is analyzed by LC-MS/MS.
The intrinsic clearance CL_[…] is calculated as follows: CL_[…]=Dose/AUC=(C0/CD)/(AUD+clast/k)*1′000/60 (C0: initial concentration in the incubation [μM], CD: cell density of vital cells [10^6 cells/mL], AUD: area under the data [μM*h], clast: concentration of last data point [μM], k: slope of the regression line for parent decline [h^−1])
The calculated in vitro hepatic intrinsic clearance can be scaled up to the intrinsic in vivo hepatic clearance and used to predict hepatic in vivo blood clearance (CL) by the use of a liver model (well stirred model): CL_[…]_INVIVO [ml/min/kg]=(CL_[…] [μL/min/10^6 cells]*hepatocellularity [10^6 cells/g liver]*liver factor [g/kg bodyweight])/1′000 CL [ml/min/kg]=CL_[…]_INVIVO [ml/min/kg]*hepatic blood flow [ml/min/kg]/(CL_[…]_INVIVO [ml/min/kg]+hepatic blood flow [ml/min/kg]) Qh [%]=CL [ml/min/kg]/hepatic blood flow [ml/min/kg]) (Hepatocellularity, human: 120*10^6 cells/g liver; liver factor, human: 25.7 g/kg bodyweight; blood flow, human: 21 ml/(min*kg))

The target in data set [4] is cytochrome P450 2C9 (Homo sapiens (Human), UniProt P11712). The experiment in a line: Cytochrome P450 2C9 inhibition. Particulars: human liver microsomes, Diclofenac hydroxylation, 37° C. The format is in vitro ADME. From the text: Assay for Determination of Cytochrome P450 2C9 Inhibition
cytochrome P450 2C9, sequence (P11712 whole entry): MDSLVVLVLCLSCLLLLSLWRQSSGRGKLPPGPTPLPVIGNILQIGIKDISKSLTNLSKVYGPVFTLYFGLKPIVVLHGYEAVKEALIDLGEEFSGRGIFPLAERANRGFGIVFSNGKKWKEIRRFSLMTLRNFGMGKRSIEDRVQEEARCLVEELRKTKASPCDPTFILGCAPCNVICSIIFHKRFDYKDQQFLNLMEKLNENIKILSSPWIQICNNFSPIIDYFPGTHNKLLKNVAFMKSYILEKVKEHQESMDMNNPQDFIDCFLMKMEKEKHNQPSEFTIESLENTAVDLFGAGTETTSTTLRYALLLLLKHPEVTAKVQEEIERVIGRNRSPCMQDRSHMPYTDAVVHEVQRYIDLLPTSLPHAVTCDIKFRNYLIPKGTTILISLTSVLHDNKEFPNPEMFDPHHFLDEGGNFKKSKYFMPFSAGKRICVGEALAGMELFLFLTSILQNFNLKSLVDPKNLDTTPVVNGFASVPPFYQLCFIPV
A general note: Liver microsomes are a subcellular fraction often used to study metabolism.

For data set [5], the target named is cytochrome P450 2C19 (Homo sapiens (Human), UniProt P33261). The experiment in a line: Cytochrome P450 2C19 inhibition. Particulars: human liver microsomes, (S)-Mephenytoin hydroxylation, 37° C. The format is in vitro ADME. From the text: Assay for Determination of Cytochrome P450 2C19 Inhibition
cytochrome P450 2C19, sequence (P33261 whole entry): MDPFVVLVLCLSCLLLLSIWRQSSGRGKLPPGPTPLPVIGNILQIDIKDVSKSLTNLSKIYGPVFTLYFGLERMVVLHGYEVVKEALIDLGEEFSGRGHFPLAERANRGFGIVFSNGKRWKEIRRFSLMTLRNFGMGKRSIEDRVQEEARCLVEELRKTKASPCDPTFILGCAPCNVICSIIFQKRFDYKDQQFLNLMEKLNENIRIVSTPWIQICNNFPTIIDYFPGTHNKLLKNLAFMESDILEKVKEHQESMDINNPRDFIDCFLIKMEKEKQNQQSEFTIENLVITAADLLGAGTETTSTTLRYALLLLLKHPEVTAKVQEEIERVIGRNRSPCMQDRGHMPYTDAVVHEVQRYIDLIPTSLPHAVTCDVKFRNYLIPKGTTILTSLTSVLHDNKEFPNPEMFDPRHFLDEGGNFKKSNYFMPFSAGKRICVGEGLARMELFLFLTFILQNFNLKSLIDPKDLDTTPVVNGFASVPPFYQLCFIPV
A short description of data set [6]: Metabolic stability with human liver microsomes. The data set is classed as in vitro ADME. The conditions noted are these: pH 7.6; pooled human liver microsomes, 37° C., 1 μM test compound, 1 mg/ml microsomal protein, NADPH; read-out: t1/2 INVITRO.
Data set [7] addresses neutrophil elastase in human plasma (Homo sapiens (Human), UniProt P08246). Description: Neutrophil elastase inhibitory activity in human plasma. The data set is classed as biochemical. Particulars: human plasma assay (zymosan-stimulated blood plasma), substrate 250 μM, pH 7.5.
Data set [8] concerns the target cytochrome P450 2C8 (Homo sapiens (Human), UniProt P10632). The experiment in a line: Cytochrome P450 2C8 inhibition. The format is in vitro ADME. Particulars: human liver microsomes, Amodiaquine deethylation, 37° C. The text has this:
Assay for Determination of Cytochrome P450 2C8 Inhibition

The nature of data set [9]: Aqueous solubility (High Throughput Method). Particulars: McIlvaine buffer pH 6.8 with 2.5% DMSO, aqueous buffer, kinetic from dmso stock; McIlvaine buffer pH 6.8, 2.5% DMSO, 24 h shaking. The data set is classed as physicochemical. In short, it runs like this:
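DMSO stock (10 mM) aliquots were diluted into McIlvaine buffer pH 6.8 and into acetonitrile/water (1/1), shaken 24 h, filtered and analysed by LC-UV. Buffer-dissolved amount was referenced to the acetonitrile/water solution over 0.001–0.125 mg/ml at 2.5% DMSO. Over 90% dissolved was marked ">".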

Data set [10] is described as follows: Drug transport across human Caco-2 cells. The format is in vitro ADME. The conditions noted are these: human, Caco-2 monolayers, pH 7.2, 37° C. In short, it runs like this: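 Caco-2 monolayers grown 10-25 days on 0.4 μm filters were dosed with typically 10 μM compound (DMSO ≤0.5%) in HTP-4 buffer pH 7.2 at 37 °C. A-B and B-A transport was run into receiver buffer with 2% BSA, sampling for up to 2 h. Concentrations were measured by LC-MS/MS or scintillation to give apparent permeability coefficients.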
On the technique in general: Caco-2 cells form a polarised layer with tight junctions and transporters.

This is an account of results in US9657015B2, “Substituted bicyclic dihydropyrimidinones and their use as inhibitors of neutrophil elastase activity” (Boehringer Ingelheim International GmbH, priority 2014, dated 2017).

Molecules are shown by their SMILES. Values after ≈ are worked out from the molar mass of the structure shown.

cytochrome P450 2C8, sequence (P10632 whole entry): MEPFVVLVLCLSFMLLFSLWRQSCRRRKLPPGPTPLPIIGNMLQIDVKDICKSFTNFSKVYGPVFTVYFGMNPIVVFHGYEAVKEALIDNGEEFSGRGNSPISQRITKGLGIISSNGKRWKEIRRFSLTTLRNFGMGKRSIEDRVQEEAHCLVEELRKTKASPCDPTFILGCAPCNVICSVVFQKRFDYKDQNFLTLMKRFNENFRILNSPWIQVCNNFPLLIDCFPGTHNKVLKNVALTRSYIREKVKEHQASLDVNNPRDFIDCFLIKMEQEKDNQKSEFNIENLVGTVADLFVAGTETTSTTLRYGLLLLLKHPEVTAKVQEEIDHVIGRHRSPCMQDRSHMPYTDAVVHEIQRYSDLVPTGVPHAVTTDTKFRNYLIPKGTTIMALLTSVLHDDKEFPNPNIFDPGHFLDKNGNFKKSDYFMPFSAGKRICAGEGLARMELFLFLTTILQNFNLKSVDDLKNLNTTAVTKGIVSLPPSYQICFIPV
neutrophil elastase in human plasma, sequence (P08246 30-247): as the sequence (P08246 30-247) above

A word on the solubility: it is the dissolved amount per volume that the medium holds. Low values mean a poorly soluble substance, high ones a readily soluble substance. One may read the IC50 as the concentration at which inhibition is half-maximal. Low readings indicate inhibition by little substance, high ones a need for much substance. In [1], `CN1C(=O)N(c2cccc(C(F)(F)F)c2)C2=C(C(=O)NCC2)[C@H]1c1ccc(C#N)cc1-c1cnn(C)c1` [Example 31A, 3-(1-Methyl-1H-pyrazol-4-yl)-4-[(4R)-3-methyl-2,5-dioxo-1-[3-(trifluoromethyl)-phenyl]-1H,2H,3H,4H,5H,6H,7H,8H-pyrido[4,3-d]pyrimidin-4-yl]benzonitrile] displayed a solubility of at least 10 µg/mL. Moreover, the IC50 is below 0.001 µM in data set [2]; above 50 µM in [4]; above 50 µM in data set [5]; below 0.001 µM in data set [7]; above 50 µM in [8]. The CLhep predicted at 1 μM in data set [3] is 3 mL/min/kg. Besides, the half-life at 1 μM in [6] is above 2.17 h. The compound also displayed a solubility at 24 h in data set [9] of 11 µg/mL (≈ 21.7 µM). Further, the Papp A→B at 10 µM in [10] (apical-to-basal, read-out: PEAB) came to 12 ×10⁻⁶ cm/s. In data set [10] (basal-to-apical, read-out: PEBA), the Papp B→A at 10 µM stood at 100 ×10⁻⁶ cm/s.
